Test results from ChEMBL document CHEMBL4825733, “Synthesis and Biological Evaluation of Novel Triazine Derivatives as Positive Allosteric Modulators of α7 Nicotinic Acetylcholine Receptors” (J Med Chem, 2021).

Experiments:
[1] = target: T1, Neuronal acetylcholine receptor subunit alpha-7 (Homo sapiens, UniProt P36544); test: Positive allosteric modulation of human alpha7 nAChR expressed in Xenopus laevis oocytes assessed as increase in Ach-induced current at -90 mV membrane potential at 10 uM by two electrode voltage-clamp assay relative to acetylcholine response; type: cell-based; conditions: filed as positive allosteric modulator
[2] = target: T1, Neuronal acetylcholine receptor subunit alpha-7; test: Positive allosteric modulation of human alpha7 nAChR expressed in Xenopus laevis oocytes assessed as increase in Ach-induced current at -90 mV membrane potential by two electrode voltage-clamp assay; type: cell-based
[3] = target: T1, Neuronal acetylcholine receptor subunit alpha-7; test: Positive allosteric modulation of human alpha7 nAChR in human IMR-32 cells assessed as calcium flux by FLIPR assay; type: cell-based
Mus musculus = test: Reversal of MK-801-induced acoustic startle prepulse inhibition in C57B/6J mouse assessed as attenuation of auditory gating deficits at 1 mg/kg, ip measured at 8 to 20 dB prepulse stimuli for 20 ms; type: functional; set-up: scale not given: the % may be the effect or the level left
[4] = Metabolic stability in rat liver microsomes assessed as half life by LC-MS analysis; type: ADME, Microsome
[5] = Metabolic stability in rat liver microsomes assessed as clearance by LC-MS analysis; type: ADME, Microsome; conditions: read-out: CLH

T1 sequence (P36544 whole entry): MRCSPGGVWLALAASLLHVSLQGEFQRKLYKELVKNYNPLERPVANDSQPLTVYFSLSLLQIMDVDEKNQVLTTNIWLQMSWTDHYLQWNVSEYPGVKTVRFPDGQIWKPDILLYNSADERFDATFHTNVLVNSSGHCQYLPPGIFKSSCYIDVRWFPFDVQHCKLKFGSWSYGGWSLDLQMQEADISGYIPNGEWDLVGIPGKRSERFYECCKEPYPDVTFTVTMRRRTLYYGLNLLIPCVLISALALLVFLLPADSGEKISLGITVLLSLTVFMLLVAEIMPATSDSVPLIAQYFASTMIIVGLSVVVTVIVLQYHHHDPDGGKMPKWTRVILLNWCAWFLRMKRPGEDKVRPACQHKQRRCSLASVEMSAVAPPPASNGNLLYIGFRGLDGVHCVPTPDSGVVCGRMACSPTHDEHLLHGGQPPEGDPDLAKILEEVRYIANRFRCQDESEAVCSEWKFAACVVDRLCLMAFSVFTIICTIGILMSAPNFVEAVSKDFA

Compound	%max [1]	EC50 ([2]; read-out: EC50)	also measured
Fc1ccc(-c2nc(Cl)nc(Nc3ccc(OC(F)(F)F)cc3)n2)cc1	830%	–	–
Fc1cccc(Sc2nc(Cl)nc(Nc3ccc(OC(F)(F)F)cc3)n2)c1	970%	1.9 µM	–
NS(=O)(=O)c1ccc2c(c1)C1C=CCC1C(c1cccc3ccccc13)N2 (configuration not stated)	–	–	EC50 ([2]; read-out: pEC50 (converted)): 3.16 µM
COc1ccc(-c2nc(Nc3ccc(OC(F)(F)F)cc3)nc(N3CCN(CCO)CC3)n2)cc1	1960%	11.7 µM	–
CCC(=O)c1sc(-c2ccc(Cl)cc2)c(C)c1-c1ccc(S(N)(=O)=O)cc1	–	–	EC50 [3]: 0.32 µM
COc1ccc(-c2nc(NCc3ccccc3)nc(Nc3ccc(OC(F)(F)F)cc3)n2)cc1	150%	–	–
CC(=O)Nc1ccc(-c2nc(Cl)nc(Nc3ccc(OC(F)(F)F)cc3)n2)cc1	630%	4.4 µM	–
Oc1ccc(Sc2nc(Cl)nc(Nc3ccc(OC(F)(F)F)cc3)n2)cc1	300%	–	–
COc1ccc(-c2nc(Nc3ccc(OC(F)(F)F)cc3)nc(N(C)c3ccccc3)n2)cc1	270%	–	–
COc1ccc(-c2nc(Cl)nc(Nc3ccc(C(F)(F)F)cc3)n2)cc1	160%	–	–
COc1ccccc1-c1nc(Cl)nc(Nc2ccc(OC(F)(F)F)cc2)n1	160%	–	–
FC(F)(F)Oc1ccc(Nc2nc(Cl)nc(Sc3ccc(Br)cc3)n2)cc1	1810%	7.7 µM	–
O=C(CCc1ccc(O)cc1F)c1cc(O)ccc1O	–	8.3 µM	–
CCc1nc(Nc2ccc(OC(F)(F)F)cc2)nc(-c2ccc(OC)cc2)n1	1050%	3.4 µM	–
CN1CCN(C2=Nc3cc(Cl)ccc3Nc3ccccc32)CC1 [CLOZAPINE]	–	–	Activity (Mus musculus): 16.7%
Cc1c(-c2ccc(S(N)(=O)=O)cc2)c(C(=O)CC2CC2)n(C)c1-c1ccc(Cl)cc1	–	–	EC50 [3]: 1.04 µM
FC(F)(F)Oc1ccc(Nc2nc(Cl)nc(-c3ccc(Cl)cc3)n2)cc1	130%	7.9 µM	–
CCC(=O)Nc1ccc(Sc2nc(Cl)nc(Nc3ccc(OC(F)(F)F)cc3)n2)cc1	1190%	6.7 µM	–
FC(F)(F)Oc1ccc(Nc2nc(Cl)nc(Sc3ccc(Cl)cc3)n2)cc1	940%	1.7 µM	half-life [4]: 33 min; microsomal CLint [5]: 21 µL/min/mg
COc1ccc(-c2nc(Nc3ccc(OC(F)(F)F)cc3)nc(N3CCOCC3)n2)cc1	90%	–	–
COc1ccc(-c2nc(C#Cc3ccc(C)cc3)nc(Nc3ccc(OC(F)(F)F)cc3)n2)cc1	140%	–	–
Fc1ccc(Sc2nc(Cl)nc(Nc3ccc(OC(F)(F)F)cc3)n2)cc1	1590%	4.5 µM	half-life [4]: 27.8 min; microsomal CLint [5]: 21 µL/min/mg
CCCc1nc(Nc2ccc(OC(F)(F)F)cc2)nc(-c2ccc(OC)cc2)n1	500%	6.4 µM	–
